How the values were obtained:
Assay type in all cases: biochemical
[1] = biological target: T1, mouse complex I (Mus musculus, UniProt P03888+Q91WD5+Q9DC70); assay: NADH:decylubiquinone oxidoreduction by purified mouse complex I; conditions: purified mouse complex I ~0.5 nM, 200 μM dQ, 200 μM NADH, 32°C; Hill slope constrained to −1; ± SE
T1 construct: from tissue; host or cells: mouse (C57BL/6) heart mitochondria
Protocol: (§1) All catalytic activity assays were conducted at 32°C in 96-well plates using a Molecular Devices Spectramax 384 plus plate reader. Catalysis was initiated by addition of 200 μM NADH and monitored at 340 and 380 nm (ε340–380 = 4.81 mM^−1 cm^−1). Linear rates were measured for all assays, inhibitors were added from dimethyl sulfoxide stock solutions as required, and inhibitor-insensitive rates (using either 1 μM piericidin A or 1.4 μM IACS-2858) were subtracted from each measured rate. Membrane samples were prepared as described previously ([17], [20], [59], [60]), diluted to 20 μg ml^−1 in 10 mM tris-SO4 (pH 7.5) and 250 mM sucrose, and supplemented with 3 μM horse heart cytochrome c (except for P. denitrificans, for which the activity is unaffected by the addition). Mouse, bovine, and yeast (Y. lipolytica) complex I were purified as described previously ([17], [20], [59]); diluted to 0.5 nM in 20 mM tris-HCl (pH 7.5), 0.15% asolectin, and 0.15% CHAPS; and assayed using either 200 μM dQ or 200 μM ubiquinone-1 (Sigma-Aldrich). Complex I was purified from P. denitrificans strain Pd1222 ([61]) and provided by O. D. Jarman (MRC Mitochondrial Biology Unit, University of Cambridge); it was assayed likewise but in 10 mM MES-HCl (pH 6.5), 25 mM NaCl, and 2 mM CaCl2. Bovine SMPs were prepared as described previously ([61]) and diluted to 20 μg ml^−1 in 10 mM tris-SO4 (pH 7.5) and 250 mM sucrose for FET and RET assays. The RET assay was initiated using 1 mM NAD^+, 1 mM ATP, 10 mM succinate, 1 mM cyanide, and 2 mM MgSO4, in the absence of NADH. AOX from Trypanosoma brucei brucei was prepared as described previously ([23]). Complex I proteoliposomes were assayed using 10 mM Mops-KOH (pH 7.5), 50 mM KCl, and AOX (10 μg ml^−1).

[2] = biological target: T2, bovine complex I (Bos taurus, UniProt P03887+P17694+P42026); assay: NADH:decylubiquinone oxidoreduction by purified bovine complex I; conditions: purified B. taurus complex I, dQ; ± SE
T2 construct: Complex I from bovine heart were prepared; from tissue; host or cells: bovine heart mitochondria
Protocol: as §1, with “Bovine SMPs were prepared as described previously ([61]) and diluted to 20 μg ml^−1 in 10 mM tris-SO4 (pH 7.5) and 250 mM sucrose for FET and RET assays. The RET assay was initiated using 1 mM NAD^+, 1 mM ATP, 10 mM succinate, 1 mM cyanide, and 2 mM MgSO4, in the absence of NADH. AOX from Trypanosoma brucei brucei was prepared as described previously ([23]). Complex I proteoliposomes were assayed using 10 mM Mops-KOH (pH 7.5), 50 mM KCl, and AOX (10 μg ml^−1).” left out

[3] = biological target: T2, bovine complex I; assay: Inhibition kinetics in bovine complex I proteoliposomes with ubiquinone-10 and AOX; conditions: versus ubiquinone-10, reciprocal plots and kinetic modelling
Protocol: Complex I from bovine heart were prepared and used to make proteoliposomes as described previously ([17], [23], [58]). Briefly, liposomes were formed from 8 mg of phosphatidylcholine, 1 mg of phosphatidylethanolamine, and 1 mg of cardiolipin (bovine heart extracts from Avanti Polar Lipids), together with varying amounts of ubiquinone-10 (Sigma-Aldrich), in ~800 μl of 10 mM 3-morpholinopropane-1-sulfonic acid (Mops)-KOH (pH 7.5) and 50 mM KCl. Following extrusion through a 100 nm of Nuclepore polycarbonate membrane (Whatman), the liposomes were partially solubilized with 0.5% sodium cholate (Anatrace), and 0.2 mg of complex I was added for reconstitution. […] Complex I concentration and orientation were quantified using the NADH:APAD^+ activity assay as described previously ([17], [23], [58]). Phospholipid phase volumes were calculated as described previously ([17], [23], [58]) to determine the amount of phospholipid present and by assuming that 1 mg of phospholipid occupies ∼1 μl. Ubiquinone-10 contents were quantified by HPLC, by reference to a set of standard samples, using a Nucleosil 100-5C18 column and a Dionex Ultimate 3000 RS electrochemical detector as described previously ([17], [23], [58]). […] All catalytic activity assays were conducted at 32°C in 96-well plates using a Molecular Devices Spectramax 384 plus plate reader. […]

## CS(=O)(=O)C1CCN(c2cccc(Cn3cc(-c4nc(-c5ccc(OC(F)(F)F)cc5)no4)ccc3=O)c2)CC1 [IACS-2858, 1-(3-(4-(Methylsulfonyl)piperidin-1-yl)benzyl)-5-(3-(4-(trifluoromethoxy)phenyl)-1,2,4-oxadiazol-5-yl)pyridin-2(1H)-one]
[1]
  IC50: 2.8 nM
[2]
  IC50: 9.3 ± 0.7 nM
[3]
  mode of inhibition: competitive

Reference: paper PMC8121435, “Cork-in-bottle mechanism of inhibitor binding to mammalian complex I” (Science Advances, 2021)
